Measurements taken from US20090191193A1, “Aryl Vinyl Sulfides, Sulfones, Sulfoxides and Sulfonamides, Derivatives Thereof and Therapeutic Uses Thereof” (TEMPLE UNIVERSITY-OF THE COMMONWEALTH SYSTEM OF HIGHER …, priority 2006, published 2009).

Tests used:
[1] = test system: DU145 (prostate cancer); assay: Effect on tumor cell lines, viable cell count by trypan blue exclusion (Latham et al.): DU145; type: cell-based; conditions: DU145 prostate cancer cells, viable cell count 96 hours after treatment
Experimental: (§1) The effect of the compounds of the invention on tumor cells was determined by the assay described by Latham et al., Oncogene 12:827-837 (1996). Tumor cells DU145 (prostate cancer), K562 (chronic myelogenous leukaemia), BT20 (breast carcinoma), H157 (non small cell lung carcinoma), or DLD1 (colon carcinoma) were plated in 6-well dishes at a cell density of 1.0×10^5 cells per 35-mm^2 well. […] The total number of viable cells was determined 96 hours later by trypsinizing the wells and counting the number of viable cells, as determined by trypan blue exclusion, using a hemacytometer. Normal HFL cells were treated with the same compounds under the same conditions of concentration and time.

[2] = test system: K562 (chronic myelogenous leukaemia); assay: Effect on tumor cell lines, viable cell count by trypan blue exclusion (Latham et al.): K562; type: cell-based; conditions: K562 chronic myelogenous leukaemia cells, viable cell count 96 hours after treatment
Experimental: as §1

Row | melting point [°C] | IC50 ([1]; Homo sapiens, DU-145, 96 h) [µM] | IC50 ([2]; Homo sapiens, K562, 96 h) [µM] | IC50 [1] [µM] | IC50 [2] [µM] | SMILES
1 | 264 to 275 | 50 to 100 | 50 to 100 | – | – | N#C/C(=C\c1c[nH]c2ccc(Br)cc12)S(=O)(=O)Cc1ccc(Cl)cc1Cl [Example 71]
2 | 150 to 165 | – | – | 50 to 100 | 50 to 100 | CCOc1cc(/C=C(\C#N)S(=O)(=O)Cc2ccc(Cl)cc2)ccc1O [Example 74]
3 | 282 to 292 | – | – | 50 to 100 | 50 to 100 | N#C/C(=C\c1c[nH]c2ccc(Cl)cc12)S(=O)(=O)Cc1ccc(Cl)cc1Cl [Example 75]
4 | 182 to 192 | > 100 | 50 to 100 | – | – | COc1cc(OC)c(/C=C(\C#N)S(=O)(=O)Cc2ccc(F)cc2)c(OC)c1 [Example 79]
5 | 193 to 205 | > 100 | 50 to 100 | – | – | COc1ccc(/C=C(\C#N)S(=O)(=O)Cc2ccc(F)cc2)cc1O [Example 80]
6 | 153 to 163 | > 100 | 50 to 100 | – | – | N#C/C(=C\c1ccc(Cl)cc1Cl)S(=O)(=O)Cc1ccc(F)cc1 [Example 85]
7 | 150 to 161 | – | – | 10 to 25 | 10 to 25 | N#C/C(=C\c1c[nH]c2ccc(Cl)cc12)S(=O)(=O)Cc1ccc(Cl)cc1Cl [Example 91]
8 | 220 to 230 | 50 to 100 | 25 to 50 | – | – | N#C/C(=C\c1ccc(O)cc1O)S(=O)(=O)Cc1ccc(Cl)cc1Cl [Example 92]
9 | 150 to 165 | 25 to 50 | 25 to 50 | – | – | COc1ccc(/C=C(\C#N)S(=O)(=O)Cc2ccc(Cl)cc2Cl)c(OC)c1OC [Example 93]
10 | 126 to 131 | 50 to 100 | 25 to 50 | – | – | CCOc1ccc(/C=C(\C#N)S(=O)(=O)Cc2ccc(Cl)cc2Cl)cc1OC [Example 94]
11 | 142 to 148 | 50 to 100 | 50 to 100 | – | – | N#C/C(=C\c1ccc(F)cc1Cl)S(=O)(=O)Cc1ccc(Cl)cc1Cl [Example 95]
12 | 142 to 149 | > 100 | 50 to 100 | – | – | Cc1ccc(C)c(/C=C(\C#N)S(=O)(=O)Cc2ccc(Cl)cc2Cl)c1 [Example 96]
13 | 126 to 142 | > 100 | > 100 | – | – | Cc1ccc(/C=C(\C#N)S(=O)(=O)Cc2ccc(Cl)cc2Cl)cc1C [Example 97]
14 | 126 to 138 | 50 to 100 | 25 to 50 | – | – | N#C/C(=C\c1ccc(Br)cc1)S(=O)(=O)Cc1ccc(Cl)cc1Cl [Example 98]
15 | 114 to 127 | > 100 | 50 to 100 | – | – | COc1ccc(/C=C(\C#N)S(=O)(=O)Cc2ccc(Cl)cc2Cl)cc1 [Example 99]
16 | 119 to 125 | > 100 | > 100 | – | – | N#C/C(=C\c1ccc(Cl)cc1)S(=O)(=O)Cc1ccc(Cl)cc1Cl [Example 100]
17 | 184 to 189 | > 100 | 50 to 100 | – | – | Cc1ccoc1/C=C(\C#N)S(=O)(=O)Cc1ccc(Cl)cc1Cl [Example 103]
18 | 116 to 122 | > 100 | 50 to 100 | – | – | N#C/C(=C\c1ccoc1)S(=O)(=O)Cc1ccc(Cl)cc1Cl [Example 104]
19 | 147 to 152 | 25 to 50 | 10 to 25 | – | – | COc1cc(/C=C(\C#N)S(=O)(=O)Cc2ccc(Cl)cc2Cl)cc(OC)c1OC [Example 105]
20 | 132 to 137 | 50 to 100 | 50 to 100 | – | – | COc1ccc(OC)c(/C=C(\C#N)S(=O)(=O)Cc2ccc(Cl)cc2Cl)c1 [Example 106]
21 | 164 to 170 | 50 to 100 | > 100 | – | – | COc1cc(OC)c(OC)cc1/C=C(\C#N)S(=O)(=O)Cc1ccc(Cl)cc1Cl [Example 107]
22 | 219 to 223 | > 100 | > 100 | – | – | N#C/C(=C\c1ccccc1O)S(=O)(=O)Cc1ccc(Cl)cc1Cl [Example 108]
23 | 169 to 171 | > 100 | > 100 | – | – | N#C/C(=C\c1ccc(O)c([N+](=O)[O-])c1)S(=O)(=O)Cc1ccc(Cl)cc1Cl [Example 109]
24 | 149 to 153 | 50 to 100 | 25 to 50 | – | – | COc1ccc(/C=C(\C#N)S(=O)(=O)Cc2ccc(Cl)cc2Cl)cc1OC [Example 110]
25 | 165 to 170 | > 100 | > 100 | – | – | COc1ccc(/C=C(\C#N)S(=O)(=O)Cc2ccc(Cl)cc2Cl)c(OC)c1 [Example 111]
26 | 219 to 223 | 50 to 100 | 50 to 100 | – | – | N#C/C(=C\c1ccccc1)S(=O)(=O)Cc1ccc(Cl)cc1Cl [Example 112]
27 | 242 to 247 | > 100 | > 100 | – | – | COc1ccc(/C=C(\C#N)S(=O)(=O)Cc2ccc(Cl)cc2Cl)c(O)c1 [Example 113]

Continued, compound first:

Row | SMILES | melting point [°C] | IC50 ([1]; Homo sapiens, DU-145, 96 h) [µM] | IC50 ([2]; Homo sapiens, K562, 96 h) [µM] | IC50 [1] [µM] | IC50 [2] [µM]
28 | N#C/C(=C\c1c[nH]c2ccc(Br)cc12)S(=O)(=O)Cc1ccc(Cl)cc1 [Example 72] | 240 to 250 | > 100 | > 100 | – | –
29 | N#C/C(=C\c1c[nH]c2ccc(Cl)cc12)S(=O)(=O)Cc1ccc(Cl)cc1 [Example 73] | 172 to 182 | 25 to 50 | 10 to 25 | – | –
30 | N#C/C(=C\c1c[nH]c2ccc(Cl)cc12)S(=O)(=O)Cc1ccc(F)cc1 [Example 77] | 250 to 265 | 50 to 100 | 50 to 100 | – | –
31 | N#C/C(=C\c1c[nH]c2ccc(Br)cc12)S(=O)(=O)Cc1ccc(F)cc1 [Example 78] | 260 to 270 | 50 to 100 | 50 to 100 | – | –
32 | N#C/C(=C\c1c[nH]c2ccccc12)S(=O)(=O)Cc1ccc(F)cc1 [Example 81] | 140 to 152 | 50 to 100 | 50 to 100 | – | –
33 | N#C/C(=C\c1ccc(Br)cc1)S(=O)(=O)Cc1ccc(F)cc1 [Example 82] | 155 to 168 | > 100 | > 100 | – | –
34 | N#C/C(=C\c1ccc(O)cc1O)S(=O)(=O)Cc1ccc(F)cc1 [Example 83] | 225 to 234 | 50 to 100 | 50 to 100 | – | –
35 | CC(=O)Oc1ccc(/C=C(\C#N)S(=O)(=O)Cc2ccc(F)cc2)cc1 [Example 84] | 116 to 125 | 1 to 10 | 1 to 10 | – | –
36 | COc1cc(/C=C(\C#N)S(=O)(=O)Cc2ccc(F)cc2)cc(OC)c1 [Example 86] | 120 to 123 | > 100 | > 100 | – | –
37 | Cc1ccc(/C=C(\C#N)S(=O)(=O)Cc2ccc(F)cc2)cc1C [Example 88] | 122 to 132 | 25 to 50 | 10 to 25 | – | –
38 | N#C/C(=C\c1ccc(Cl)cc1)S(=O)(=O)Cc1ccc(F)cc1 [Example 89] | 150 to 155 | 50 to 100 | 50 to 100 | – | –
39 | Cc1ccc(C)c(/C=C(\C#N)S(=O)(=O)Cc2ccc(F)cc2)c1 [Example 90] | 122 to 130 | > 100 | 50 to 100 | – | –
40 | Cc1cc(C)cc(/C=C(\C#N)S(=O)(=O)Cc2ccc(Br)cc2)c1 [Example 101] | 169 to 172 | > 100 | 50 to 100 | – | –
41 | Cc1ccoc1/C=C(\C#N)S(=O)(=O)Cc1cccc(Br)c1 [Example 114] | 122 to 126 | > 100 | > 100 | – | –
42 | N#C/C(=C\c1ccoc1)S(=O)(=O)Cc1cccc(Br)c1 [Example 115] | 128 to 132 | > 100 | > 100 | – | –
43 | N#C/C(=C\c1ccc(O)c(O)c1)S(=O)(=O)Cc1cccc(Br)c1 [Example 116] | 119 to 121 | > 100 | > 100 | – | –
44 | N#C/C(=C\c1cccc(O)c1)S(=O)(=O)Cc1cccc(Br)c1 [Example 117] | 160 to 165 | > 100 | > 100 | – | –
45 | Cc1ccc(/C=C(\C#N)S(=O)(=O)Cc2ccc(Br)cc2)s1 [Example 118] | 142 to 148 | > 100 | > 100 | – | –
46 | Cc1ccc(C)c(/C=C(\C#N)S(=O)(=O)Cc2ccc(Br)cc2)c1 [Example 119] | 124 to 128 | > 100 | > 100 | – | –
47 | N#C/C(=C\c1ccccc1O)S(=O)(=O)Cc1ccc(Cl)cc1 [Example 121] | 171 to 176 | > 100 | > 100 | – | –
48 | N#C/C(=C\c1ccoc1)S(=O)(=O)Cc1ccc(Cl)cc1 [Example 122] | 150 to 154 | > 100 | > 100 | – | –
49 | Cc1ccc(/C=C(\C#N)S(=O)(=O)Cc2ccc(Cl)cc2)s1 [Example 123] | 148 to 152 | > 100 | > 100 | – | –
50 | N#C/C(=C\c1cccc(O)c1)S(=O)(=O)Cc1ccccc1 [Example 124] | 132 to 135 | > 100 | 50 to 100 | – | –
51 | N#C/C(=C\c1ccccc1O)S(=O)(=O)Cc1ccccc1 [Example 125] | 135 to 138 | 50 to 100 | > 100 | – | –
52 | COc1ccccc1/C=C(\C#N)S(=O)(=O)Cc1ccccc1 [Example 126] | 169 to 172 | > 100 | > 100 | – | –
53 | Cc1ccoc1/C=C(\C#N)S(=O)(=O)Cc1ccccc1 [Example 128] | 118 to 121 | > 100 | 50 to 100 | – | –
